# Source: BindingDB's records for doi:10.1021/jm801475n (University of Dundee, 2009)
# Target: T1, 2-C-methyl-D-erythritol 2,4-cyclodiphosphate synthase (Escherichia coli (strain K12), UniProt P62617)
# T1 sequence (P62617 whole entry): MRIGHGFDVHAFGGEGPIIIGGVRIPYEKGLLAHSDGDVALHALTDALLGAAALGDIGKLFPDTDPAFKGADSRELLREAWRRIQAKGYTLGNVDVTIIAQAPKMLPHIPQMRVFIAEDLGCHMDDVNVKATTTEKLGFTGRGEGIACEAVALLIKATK
# Assay: SPR Biosensor Assay
# Conditions: pH 7; 10 °C
# Experimental: An SPR assay was used to determine the binding affinities of compounds. Experiments were performed on a Biacore 3000 (Biacore, Uppsala, Sweden) instrument with CM5 research grade chips (Biacore, Uppsala, Sweden). Sensorgrams were recorded at a frequency of 2.5 Hz. EcIspF was immobilized using amine-coupling chemistry with readings between 4500 and 5500 response units were obtained. After immobilization, a 6 min injection at 5 uL min-1 of 1 M ethanolamine was used to quench excess active succinamide ester groups. SPR binding experiments with EcIspF were performed at 10 deg C in 50 mM sodium phosphate pH 7 and 2 mM MgCl2 at a flow rate of 30 uL min-1. The sensor surface was regenerated between experiments by applying the running buffer for 20 min to dissociate any ligand complex. This was followed by a further 20 min stabilization period. The 40 min total regeneration time between experiments helped to eliminate any carry-over of EcIspF bound to ligand. Each injection at a given concentration was repeated three times. Blank injections were included for each measurement series and subtracted from the data. The equilibrium (steady state) binding curves were analyzed by nonlinear regression and fit to a one-to-one Langmuir binding model. All ligands assessed by SPR were greater than 95% purity as established by high-performance liquid chromatography or combustion analysis.
compound,measurement,value
"N[C@@H](Cc1c[nH]c2ccccc12)C(=O)NO [Tryptophanhydroxamate, 13]",Kd,1920 nM
